From patent publication US8093299B2, “Methods of treating bowel disorders” (Amgen Inc., priority 2007, dated 2012)
Several values for one entry are separate records, joined by “and”; a condition that tells them apart may be missing. Identical values can stand only once. Entries after “also recorded” stand apart in the source; their conditions may differ.

Tests used:
[1] = test system: 5% DSS induced colitis in SJL/J mice; assay: DSS-induced colitis in mice, histopathologic inflammation score of large intestine; type: in vivo, mouse
Source text: Animals. Female SJL/J mice aged 8-10 weeks were used for this study, purchased from Jackson Laboratories (Bar Harbour, Me.). Female Spraque-Dawley rats (approximately 150-300 grams) were purchased from Charles River Laboratories Inc. (Wilmington, Mass.). Mdr1a−/− mice (FVB.129P2-Abcb1a^tm1BorN7), weight 20-21 g, 8 weeks at initiation of experiments, were housed and maintained (5 per cage) in the animal facility at Amgen Washington. All animals were cared for according to the standard protocols of the Amgen Institutional Animal Care and Use Committee.
Chemical reagents. Dextran sodium sulfate (DSS) with molecular mass 36-50 kDa was purchased from ICN Chemicals, Aurora, Ohio. The DSS solution was prepared as a 5% w/v solution in sterile water (Baxter Healthcare Corporation) and sterile filtered through a 0.45 μm filter before being added to drinking water. Water for the negative control groups was similarly filtered. FK506, (also known as Tacrolimus, active ingredient in Prograf®), chemical name [3S-[3R*[E(1S*,3S*,4S*)],4S*,5R*,8S*,9E,12R*,14R*,15S*,16R*,18S*,19S*,26aR*]]-5,6,8,11,12,13,14,15,16,17,18,19,24,25,26,26a-hexadecahydro-5,19-dihydroxy-3-[2-(4-hydroxy-3-methoxycyclohexyl)-1-methylethenyl]-14,16-dimethoxy-4,10,12,18-tetramethyl-8-(2-propenyl)-15,19-epoxy-3H-pyrodi[2,1-c][1,4]oxaazacyclotricosine-1,7,20,21(4H, 23H)-tetrone monohydrate, was used as a positive control for the inflammation treatment. Tacrolimus is a macrolide immunosuppressant produced by Streptomyces tsukubaensis. The solution of FK506 (Prograf®, Astellas) was prepared as follows: 0.1 mg/ml solution in phosphate buffered saline (PBS) was prepared by diluting 5 mg/ml stock solution. The animals were dosed with FK506 at 1 mg/kg in 200 μl of PBS.
Calcimimetic solutions (Compound A, 3-(2-chlorophenyl)-N-((1R)-1-(3-(methyloxy)phenyl)ethyl)-1-propanamine, Compound B, (1R)-N-((6-(methyloxy)-4′-(trifluoromethyl)-3-biphenylyl)methyl)-1-phenylethanamine, Compound C, N-(2-chloro-5-((((1R)-1-phenylethyl)amino)methyl)phenyl)-5-methyl-3-isoxazolecarboxamide, and Compound D, N-(2-chloro-5-((((1R)-1-phenylethyl)amino)methyl)phenyl)-2-pyridinecarboxamide) were formulated and dosed in free base equivalents at volumes determined by the pharmacologist. Formulation vehicle was 20% (w/v) Captisol (β-Cyclodextrin Sulfobutyl Ether Sodium Salt, Research Grade from CyDex, Inc.) in water with a final pH of 2.0-2.2 at room temperature, adjusted with HCl and NaOH as required. Final concentrations of DMSO never exceeded 0.1% (v/v).
DSS colitis in mice. All experiments were performed on groups of 8 to 10 SJL-J mice, housed in the same cage. For disease induction, mice were given a 5% DSS ad libitum as drinking water for 9 days.
Postmortem evaluation. Mice and rats were euthanized by CO2 asphyxiation. The large intestine were removed from the carcass, evaluated for gross lesions and three individual non-adjacent segments of proximal, middle and distal large intestine 2 centimeters long were immersed in the Zinc Formalin fix for 24 hours. At the end of 24 hours the sections were washed with tap water and put into 70% ethanol. Each section was then cut into three 3 mm pieces (9 pieces per animal), processed into paraffin blocks, and sections were cut in 5 μm sections and stained with hematoxylin and eosin.
Histopathologic changes of the proximal, middle, and distal small and large intestine was scored as a global assessment of inflammation based on inflammatory infiltrate, edema, mucosal erosions or ulcerations as described in Table 6.
For disease induction, treated mice were given 5% DSS in water ad libitum as drinking water for 9 days as described in Example 1 and were concurrently treated orally during that period with one of the treatments listed in Table 8.
FIG. 1 and Table 8 summarize the effect of the calcimimetic compound B on colonic inflammation in 5% DSS induced colitis. Animals were euthanized with carbon dioxide on day nine post treatment. […]

[2] = Absorption from the gut into the bloodstream
[3] = test system: colitis in mdr1a-/- mice induced by H. bilis; assay: Colitis in mdr1a-/- mice infected with Helicobacter bilis (clinical score, disease onset, histology); type: in vivo, mouse; conditions: for Total LI score (Max = 12), individual animals / GI Inflammation LI DISTAL, individual animals / GI Inflammation LI MIDDLE, individual animals / GI Inflammation LI PROXIMAL, individual animals: listed as R-B; for GI Inflammation LI DISTAL, individual animals / GI Inflammation LI MIDDLE, individual animals / GI Inflammation LI PROXIMAL, individual animals: score 0-4; for disease onset compared to vehicle control group: Log-Rank test, p-value=0.04
[4] = Serum calcium and phosphorus in mdr1a-/- colitis study; type: in vivo, mouse; conditions: day 38
Description: (§1) All mice were necropsied on day 38 post initial inoculation. Mice were euthanized by CO2 asphyxiation. Blood was obtained by intracardiac puncture and collected in serum separator tubes. Serum was harvested and stored at −80° C. Colons were dissected below the cecum and just above the anus, and the contents of the lumen were removed. Sections of the proximal, middle, and distal colon regions were fixed in 10% neutral buffered formalin for histopathological analysis.
(§2) Serum clinical chemistry analysis was performed on the Olympus AU400 using standard tests and protocols. Calcium and phosphorus measurements were performed on undiluted serum for all samples. Serum cytokines and chemokines were assayed by Lincoplex mouse cytokine/chemokine muliplex immunoassasy (Millipore; Billerica, Mass.) per manufacturer instructions.
(§3) Results for serum analytes were expressed as the mean±standard error of the mean (SEM). A one-way ANOVA with Tukey's post test was performed using GraphPad Prism. A p-value of 0.05 was used in the calculation to determine whether there were significant differences between any two groups. Results for disease onset were expressed as a standard survival curve. A Log-Rank (Mantel-Cox) Test was performed using GraphPad Prism to determine significance. A p-value of 0.05 was used in the calculation to determine whether there were significant differences between any two groups. Results for clinical score and histology score were expressed as the mean±SEM. A Cochran-Mantel-Haenszel mean score test was performed using SAS software. A p-value of 0.05 was used in the calculation to determine whether there were significant differences between any two groups.

[5] = test system: IP-10; assay: Serum IP-10 in mdr1a-/- colitis study; type: in vivo, mouse
Description: as §1, §2, §3

[6] = 30 mg/kg oral, 5% DSS 9 days, vs Captisol vehicle
[7] = 10 mg/kg oral, 5% DSS 9 days, vs Captisol vehicle, p<0.01
[8] = R-Compound B 10 and 3 mg/kg groups

## C[C@@H](NCc1ccc(Cl)c(NC(=O)c2ccccn2)c1)c1ccccc1 [Compound D, N-(2-chloro-5-((((1R)-1-phenylethyl)amino)methyl)phenyl)-2-pyridinecarboxamide]
[1]; 30 mg/kg oral, 5% DSS
  inflammation scores in all parts of colon compared to vehicle (FIG. 2): reduce inflammation scores
[1]; 30 mg/kg oral, 5% DSS 9 days
  animals lacking inflammatory changes (colon normal): Two out of eight
[1]; [6]
  decrease in mean large intestine inflammatory score, combined: 48%
  decrease in mean large intestine inflammatory score, distal: 68%
  decrease in mean large intestine inflammatory score, middle: 29%
  decrease in mean large intestine inflammatory score, proximal: 44%
[2]
  absorption from the gut into the bloodstream: not to be absorbed readily

## COc1ccc(CN[C@H](C)c2ccccc2)cc1-c1ccc(C(F)(F)F)cc1 [Compound B, (1R)-N-((6-(methyloxy)-4′-(trifluoromethyl)-3-biphenylyl)methyl)-1-phenylethanamine]
[1]; 10 mg/kg oral, 5% DSS 9 days
  animals lacking inflammatory changes (colon normal): Four out of ten
[1]; [7]
  mean large intestine inflammatory score, combined segments: statistically significant decreased
  mean large intestine inflammatory score, middle segment: statistically significant decreased
[1]; 10 mg/kg oral, 5% DSS 9 days, vs Captisol vehicle, p<0.05
  mean large intestine inflammatory score, distal segment: statistically significant decreased
[1]; 5% DSS 9 days, SJL/J mice, oral, Compound B 10 mg/kg, FK 506 1 mg/kg
  Animals with colonic inflammation/total animals: 6/10
[1]; Compound B 10 mg/kg vs FK 506 1 mg/kg, oral, 5% DSS
  mean inflammatory score in combined colonic segments compared to FK 506 treatment: statistically significant (p<0.05) decrease
[3]; 3 mg/kg PO daily, day 38
  Average LI score: 1.6
  GI Inflammation LI DISTAL, Segment Mean: 0.60
  GI Inflammation LI MIDDLE, Segment Mean: 0.60
  GI Inflammation LI PROXIMAL, Segment Mean: 0.40
  Total LI score (Max = 12), individual animals: 0 (8×) and 8 (2×)
  GI Inflammation LI DISTAL, individual animals: 0 (8×) and 3 (2×)
  GI Inflammation LI MIDDLE, individual animals: 0 (8×) and 3 (2×)
  GI Inflammation LI PROXIMAL, individual animals: 0 (8×) and 2 (2×)
[3]; 3 mg/kg PO daily, first and second animal, listed as R-Compound B
  day on which an animal began showing clinical signs of colitis (disease onset): 17 days and 31 days
[3]; 10 mg/kg PO daily
  day on which animals began showing clinical symptoms (disease onset): 32 days
  disease onset compared to vehicle control group: significantly different
[3]; 10 mg/kg PO daily, listed as R-Compound B
  disease onset compared to vehicle control group: statistically significant difference
[3]; 10 mg/kg PO daily, day 38
  Average LI score: 0.9
  GI Inflammation LI DISTAL, Segment Mean: 0.30
  GI Inflammation LI MIDDLE, Segment Mean: 0.20
  GI Inflammation LI PROXIMAL, Segment Mean: 0.40
  Total LI score (Max = 12), individual animals: 2 and 0 (8×) and 7
  GI Inflammation LI DISTAL, individual animals: 0 (9×) and 3
  GI Inflammation LI MIDDLE, individual animals: 0 (9×) and 2
  GI Inflammation LI PROXIMAL, individual animals: 2 (2×) and 0 (8×)
[3]; 10 mg/kg PO daily, final day (day 38), p<0.05
  clinical scores compared to vehicle group: significantly lower clinical scores
[3]; [8]
  anal inflammation score of animals showing clinical symptoms: none had an anal inflammation score above moderate
  development of diarrhea: no animal developed diarrhea
[3]; day 38, per treatment group (S-Compound B 10 mg/kg, n=5; R-Compound B 10 mg/kg and 3 mg/kg, n=10 each)
  number of animals with clinical symptoms of disease on the final day of the study: one
[3]; each R-Compound B group (10 and 3 mg/kg)
  percentage of animals with colon pathology: 20%
[3]; mdr1a-/- mice, 10 or 3 mg/kg PO daily, listed as R-Compound B
  overall effect on development, onset, incidence and severity of colitis: attenuates the development of colitis; also recorded: delayed the onset of colitis and reduced the severity of disease; also recorded: reduced the incidence and severity of disease; also recorded: inhibited the development and severity of colitis
[3]; per group: R-Compound B 10 and 3 mg/kg each, S-Compound B 10 mg/kg
  animals with colitis / colon pathology by histology: 2 out of 10
[4]; 3 mg/kg PO daily
  serum phosphorus compared to the S-Compound B treated group only: significant elevation
[4]; 10 mg/kg PO daily
  serum calcium compared to CTLA4 and vehicle control groups: significant calcium reductions
  serum phosphorus levels compared to all control groups: significantly elevated
[4]; both R-Compound B groups (10 and 3 mg/kg PO daily)
  serum calcium levels compared to uninfected controls: significantly reduced
[5]; 10 mg/kg PO daily, p=0.06
  difference in production of serum IP-10 vs vehicle control group: approached significance
[5]; treatment groups vs vehicle treated animals
  elevation of serum IP-10: less elevation

## Cc1cc(C(=O)Nc2cc(CN[C@H](C)c3ccccc3)ccc2Cl)no1 [Compound C, N-(2-chloro-5-((((1R)-1-phenylethyl)amino)methyl)phenyl)-5-methyl-3-isoxazolecarboxamide]
[1]; 30 mg/kg oral, 5% DSS
  inflammation scores in all parts of colon compared to vehicle (FIG. 2): reduce inflammation scores
[1]; [6]
  decrease in mean large intestine inflammatory score, combined: 30%
  decrease in mean large intestine inflammatory score, distal: 49%
  decrease in mean large intestine inflammatory score, middle: 20%
  decrease in mean large intestine inflammatory score, proximal: 15%
[2]
  absorption from the gut into the bloodstream: not to be absorbed readily
